Source: patent EP0089767A1, “Acid addition salts of a penicillanic acid derivative” (UPJOHN LIMITED, priority 1982, dated 1983)
Counter-ions that a name gives are not always drawn.

Legend:
[1] = test system: S. pyrogenes (UC 152); assay: Antibiotic potency: CD50 in mice challenged with a lethal dose of microorganism; assay type: in vivo; conditions: oral intubation at 0, 24, 48 and 72 hours after interperitoneal challenge with S. pyrogenes (UC 152), dose curing 50% of mice, mean (95% confidence limits); for ED50: Mus musculus
Protocol: (§1) The antibiotic potency of the salts of the present invention is illustrated by the data below providing CD50's of the various antibiotic agents, dissolved in inert vehicle, when administered to mice by oral intubation at 0, 24, 48, and 72 hours after challenge of the mice with an interperitoneally administered dose of microorganism which, in the absence of antibiotic agent, would be lethal. The CD50 for an agent is the dose at which 50% of the mice are cured under such a dosing schedule. In the data below the first number in each entry is the mean value and the numbers in parenthesis are the 95% confidence limits: […]

[2] = test system: S. aureus; assay: as above; assay type: in vivo; conditions: oral intubation at 0, 24, 48 and 72 hours after interperitoneal challenge with S. aureus, dose curing 50% of mice, mean (95% confidence limits)
Protocol: as §1

Row | SMILES | ED50 [1] | ED50 ([2]; Staphylococcus aureus, po) | CD50 ([2]; hydrochloride) | CD50 [1] | CD50 [2]
1 | CC1(C)S[C@@H]2[C@H](NC(=O)[C@H](N)c3ccccc3)C(=O)N2[C@H]1C(=O)O [ampicillin, 6-[D-(2-amino-2-phenylacetamido)] penicillanicacid] | 0.49 µmol/kg | 2 µmol/kg |  |  | 
2 | CCOC(=O)OC(C)OC(=O)[C@@H]1N2C(=O)[C@@H](NC(=O)[C@H](N)c3ccccc3)[C@H]2SC1(C)C (stereo partly drawn) [bacampicillin-HCl, bacampicillin hydrochloride] | 0.19 µmol/kg |  | 1.5 (1.0-2.3) micromoles/kg |  | 
3 | CCOC(=O)OC(C)OC(=O)[C@@H]1N2C(=O)[C@@H](NC(=O)[C@H](N)c3ccccc3)[C@H]2SC1(C)C (stereo partly drawn) [bacampicillin 1-naphthalene-sulfonate, Bacampicillin 1-Naphthalenesulfonate] |  |  |  | 0.15 (0.10-0.20) micromoles/kg | 0.74 (0.43-1.3) micromoles/kg
